Results as given in US9072293B2, “Cyclopropenes and method for applying cyclopropenes to agricultural products or crops” (Erum Biotechnologies Inc., priority 2010, dated 2015).
“And” between values parts separate entries of the source, which are not always exact repeats. Equal entries are not always repeated.

Experiments:
tomato = assay: Experimental Example 3: Efficacy test on tomato for other drugs (emulsion and oil-based formulation); format: in vivo; design: key: an area in which the surface of tomato was colored in pink was 10% or less; an area in which the surface of tomato was completely colored in red was 10 to 40%; 2: an area in which the surface of tomato was completely colored in red was 40 to 70%; 3: an area in which the surface of tomato was completely colored in red was 70% or more and the bottom area remained green; 4: an area in which the surface of tomato was most colored in red and only a part of (0 to 10%) the bottom area remained green; 5: the surface of tomato did not entirely color in green; settings: individual tomatoes n=4
Experimental: At this time, the tops of tomatoes most early turned red, while the bottoms thereof most lately turned red. For this reason, in order to accurately evaluate the difference in reddening, the coloring evaluated was based on the area of red color, rather than the color of tomatoes. […] Accordingly, the grade level is proportional to the rate at which the tomatoes ripened.
1.0 mM emulsions and oil-based formulations of four agents, i.e., 1-(2-(4-methoxyphenyl)ethyl)cyclopropene, 1-(3-(4-methoxyphenyl)propyl)cyclopropene, 1-(3-phenoxypropyl)cyclopropene and 1-(4-phenoxybutyl)cyclopropene were prepared in accordance with Examples 1 and 2.
The tomatoes were screened in the same manner as in Experimental Example 1 and divided into 9 groups (n=4), i.e., a non-treated group and 4 emulsion-type agent groups and 4 oil-based formulation-type agent groups. Tomatoes were treated with the previously prepared agent using a household sprayer such that the surface thereof was saturated. The tomatoes were stood at room temperature (25-30° C.) for 3 days and a reddening level thereof was evaluated based on grades of 0 to 5.

[1] = Relative chemical stability of cyclopropenes measured by 1H-NMR; format: physicochemical; settings: 1H-NMR, CDCl3, stored at −20° C. or room temperature; relative to chain length 1
Description: A variety of analysis methods can be used to analyze the derivatives of Formula 6, since the absorbance of cyclopropenes containing an aryl group can be easily measured in the UV range. It can be confirmed that the chemical stability of the derivatives increases, when the length of chains to link an aryl ring to a cyclopropene ring is 2 or more. […] It is supposed that the stability of cyclopropenes increase due to the fact that π electrons of aryl groups affect π electrons of cyclopropenes.
The following Table 1 summarizes the relative chemical stability of cyclopropenes having a chain length of 2, 3, 4 or 5, based on the chemical stability of cyclopropenes having a chain length of 1. In the case of cyclopropene having a chain length of 1, the structure thereof can be confirmed via ^1H-NMR within one hour following synthesis (degraded to a level of 50% or more within one hour at 30° C.). In the case of cyclopropene having a chain length of zero, synthesis thereof was attempted in accordance with the present invention, but was impossible by a conventional method. Meanwhile, in the case of cyclopropenes having a chain length of 2 or more, the structure thereof can be precisely confirmed by ^1H-NMR as well as ^13C-NMR. The stability of these cyclopropenes was measured by ^1H-NMR while NMR cells (CDCl3) were stored at −20° C. or room temperature. In particular, cyclopropenes having chains of 3 or more were so stable that their half-life reached 5 days or longer at −20° C. or lower. In ^1H-NMR analysis, the stability was evaluated by comparing integral values at 4 to 6.5 ppm (1H) and 0.8 to 0.9 ppm (2H), characteristic peaks of 1-alkylcyclopropenes, using a small amount of 1,1,3,3-tetramethylurea (2.80 ppm) as an internal standard. Furthermore, the stability was also qualitatively evaluated by comparing integral value of the peak newly generated adjacent to the peak of the olefin proton of cyclopropene ring, as a 1-alkylcyclopropene compound is decomposed.

[2] = 1.0 mM Emulsion, Day 0, room temperature (25-30° C.)
[3] = 1.0 mM Emulsion, Day 1, room temperature (25-30° C.)
[4] = 1.0 mM Emulsion, Day 2, room temperature (25-30° C.)
[5] = 1.0 mM Emulsion, Day 3, room temperature (25-30° C.)
[6] = 1.0 mM Oil-based formulation, Day 0, room temperature (25-30° C.)
[7] = 1.0 mM Oil-based formulation, Day 1, room temperature (25-30° C.)
[8] = 1.0 mM Oil-based formulation, Day 2, room temperature (25-30° C.)
[9] = 1.0 mM Oil-based formulation, Day 3, room temperature (25-30° C.)

Structure (SMILES) | reddening level (grade 0 to 5) (tomato; [2]) | reddening level (grade 0 to 5) (tomato; [3]) | reddening level (grade 0 to 5) (tomato; [4]) | reddening level (grade 0 to 5) (tomato; [5]) | reddening level (grade 0 to 5) (tomato; [6]) | reddening level (grade 0 to 5) (tomato; [7]) | reddening level (grade 0 to 5) (tomato; [8]) | reddening level (grade 0 to 5) (tomato; [9]) | Stability (relative chemical stability, based on cyclopropenes having a chain length of 1) [1]
COc1ccc(CCC2=CC2)cc1 [(2-(4-Methoxyphenyl)ethyl), 1-(2-(4-methoxyphenyl)ethyl)cyclopropene] | 0 (an area in which the surface of tomato was colored in pink was 10% or less) (2×) and 1 (an area in which the surface of tomato was completely colored in red was 10 to 40%) and 2 (an area in which the surface of tomato was completely colored in red was 40 to 70%) | 1 (an area in which the surface of tomato was completely colored in red was 10 to 40%) (2×) and 3 (an area in which the surface of tomato was completely colored in red was 70% or more and the bottom area remained green) (2×) | 3 (an area in which the surface of tomato was completely colored in red was 70% or more and the bottom area remained green) (2×) and 4 and 5 | 4 (2×) and 5 (2×) | 0 (an area in which the surface of tomato was colored in pink was 10% or less) (2×) and 1 (an area in which the surface of tomato was completely colored in red was 10 to 40%) and 2 (an area in which the surface of tomato was completely colored in red was 40 to 70%) | 1 (an area in which the surface of tomato was completely colored in red was 10 to 40%) (2×) and 2 (an area in which the surface of tomato was completely colored in red was 40 to 70%) and 3 (an area in which the surface of tomato was completely colored in red was 70% or more and the bottom area remained green) | 2 (an area in which the surface of tomato was completely colored in red was 40 to 70%) (2×) and 3 (an area in which the surface of tomato was completely colored in red was 70% or more and the bottom area remained green) and 4 | 3 (an area in which the surface of tomato was completely colored in red was 70% or more and the bottom area remained green) (2×) and 4 and 5 | >10
COc1ccc(CCCC2=CC2)cc1 [(3-(4-Methoxyphenyl)propyl), 1-(3-(4-methoxyphenyl)propyl)cyclopropene] | 0 (an area in which the surface of tomato was colored in pink was 10% or less) (2×) and 1 (an area in which the surface of tomato was completely colored in red was 10 to 40%) and 2 (an area in which the surface of tomato was completely colored in red was 40 to 70%) | 0 (an area in which the surface of tomato was colored in pink was 10% or less) (2×) and 1 (an area in which the surface of tomato was completely colored in red was 10 to 40%) and 2 (an area in which the surface of tomato was completely colored in red was 40 to 70%) | 1 (an area in which the surface of tomato was completely colored in red was 10 to 40%) (2×) and 2 (an area in which the surface of tomato was completely colored in red was 40 to 70%) and 3 (an area in which the surface of tomato was completely colored in red was 70% or more and the bottom area remained green) | 2 (an area in which the surface of tomato was completely colored in red was 40 to 70%) (2×) and 3 (an area in which the surface of tomato was completely colored in red was 70% or more and the bottom area remained green) and 4 | 0 (an area in which the surface of tomato was colored in pink was 10% or less) (2×) and 1 (an area in which the surface of tomato was completely colored in red was 10 to 40%) and 2 (an area in which the surface of tomato was completely colored in red was 40 to 70%) | 0 (an area in which the surface of tomato was colored in pink was 10% or less) (2×) and 1 (an area in which the surface of tomato was completely colored in red was 10 to 40%) and 2 (an area in which the surface of tomato was completely colored in red was 40 to 70%) | 1 (an area in which the surface of tomato was completely colored in red was 10 to 40%) (2×) and 2 (an area in which the surface of tomato was completely colored in red was 40 to 70%) and 3 (an area in which the surface of tomato was completely colored in red was 70% or more and the bottom area remained green) | 1 (an area in which the surface of tomato was completely colored in red was 10 to 40%) and 2 (an area in which the surface of tomato was completely colored in red was 40 to 70%) and 3 (an area in which the surface of tomato was completely colored in red was 70% or more and the bottom area remained green) (2×) | >>10
C1=C(CCCOc2ccccc2)C1 [(3-Phenoxypropyl), 1-(3-phenoxypropyl)cyclopropene] | 0 (an area in which the surface of tomato was colored in pink was 10% or less) (2×) and 1 (an area in which the surface of tomato was completely colored in red was 10 to 40%) and 2 (an area in which the surface of tomato was completely colored in red was 40 to 70%) | 0 (an area in which the surface of tomato was colored in pink was 10% or less) (2×) and 1 (an area in which the surface of tomato was completely colored in red was 10 to 40%) and 2 (an area in which the surface of tomato was completely colored in red was 40 to 70%) | 1 (an area in which the surface of tomato was completely colored in red was 10 to 40%) (2×) and 2 (an area in which the surface of tomato was completely colored in red was 40 to 70%) (2×) | 2 (an area in which the surface of tomato was completely colored in red was 40 to 70%) (2×) and 3 (an area in which the surface of tomato was completely colored in red was 70% or more and the bottom area remained green) (2×) | 0 (an area in which the surface of tomato was colored in pink was 10% or less) (2×) and 1 (an area in which the surface of tomato was completely colored in red was 10 to 40%) and 2 (an area in which the surface of tomato was completely colored in red was 40 to 70%) | 0 (an area in which the surface of tomato was colored in pink was 10% or less) (2×) and 1 (an area in which the surface of tomato was completely colored in red was 10 to 40%) and 2 (an area in which the surface of tomato was completely colored in red was 40 to 70%) | 0 (an area in which the surface of tomato was colored in pink was 10% or less) (2×) and 2 (an area in which the surface of tomato was completely colored in red was 40 to 70%) and 3 (an area in which the surface of tomato was completely colored in red was 70% or more and the bottom area remained green) | 1 (an area in which the surface of tomato was completely colored in red was 10 to 40%) (2×) and 2 (an area in which the surface of tomato was completely colored in red was 40 to 70%) and 3 (an area in which the surface of tomato was completely colored in red was 70% or more and the bottom area remained green) | >>10
